Assay results: publication PMC12186257, “Serendipitous and Systematic Chemoproteomic Discovery of MBLAC2, HINT1, and NME1‑4 Inhibitors from Histone Deacetylase-Targeting Pharmacophores” (ACS Chemical Biology, 2025)

Assays:
[1] = test system: compound-binding proteins such as HDACs, MBLAC2, ISOC1/2, ALDH2, and GATD3A; assay: chemoproteomic competition assay, proteome-wide target binding profile; set-up: species or system human; details: dose-dependent competition
Protocol: MBLAC2 is a metalloenzyme predicted to harbor one or two Zn^2+ ions in its active site. […] In this assay, compounds of interest are incubated at increasing concentrations with a mixture of lysates of MV4–11 and SW620 cells. The compound-treated lysates are then mixed with bead-immobilized hydroxamic acid-containing compounds iA, iC, and iQ (immobilized Quisinostat), which pull down compound-binding proteins such as HDACs, MBLAC2, ISOC1/2, ALDH2, and GATD3A (Figure a) that can be identified and quantified by mass spectrometry (MS). Proteins targeted by the library compounds in a preincubation step are prevented from being pulled down by the immobilized probes, leading to a dose-dependent reduction in MS signal. Initially, 12 metal-chelating compounds were profiled at two concentrations (10 μM and 100 μM) (Figure S3).
Chemoproteomic competition assays
Sample preparation. For the MBLAC2 and HDAC inhibitor competition assay, the generation of affinity matrices, lysate generation, pulldown assay, and sample preparation were performed as described in detail in REF1. For the kinobeads assay, the generation of affinity matrices, lysate generation, pulldown assay, and sample preparation were performed as described in detail in REF2.
LC-MS/MS. The different sample types were measured with different LC-MS/MS settings. MBLAC2 2-dose competition assays were measured with the Lumos1 setup, MBLAC2 9-dose competition assays were measured with the Lumos2 setup, and kinobeads assays were measured with the Eclipse setup.
Peptides were analyzed via LC–MS/MS on a Dionex Ultimate3000 nano HPLC coupled to either one of two Orbitrap Fusion Lumos mass spectrometers, or to an Orbitrap Eclipse mass spectrometer, operated via the Thermo Scientific Xcalibur software.
In the all setups, peptides were loaded on a trap column (100 μm × 2 cm, packed in-house with Reprosil-Gold C18 ODS-3 5 μm resin, Dr. Maisch, Ammerbuch) and washed with 5 μL/min solvent A (0.1% formic acid in HPLC grade water) for 10 min. Peptides were then separated on an analytical column (75 μm × 40 cm, packed in-house with Reprosil-Gold C18 3μm resin, Dr. Maisch, Ammerbuch) using a 50 min gradient ranging from 4 to 32% solvent B (0.1% formic acid, 5% DMSO in acetonitrile) in solvent A (0.1% formic acid, 5% DMSO in HPLC grade water) at a flow rate of 300 nL/min.
The mass spectrometers were operated in data-dependent mode, automatically switching between MS1 and MS2 spectra. MS1 spectra were acquired over a mass-to-charge (m/z) range of 360–1300 m/z at a resolution of 60,000 (at m/z 200) in the Orbitrap using a maximum injection time of 50 ms and an automatic gain control (AGC) target value of 4e5.
In Lumos settings, up to 12 peptide precursors were isolated in (isolation width of 1.2 Th for Lumos1 and 1.7 for Lumos2, maximum injection time of 75 ms, AGC value of 1e5 for Lumos1 and 2e5 for Lumos2), fragmented by HCD using 30% normalized collision energy (NCE) and analyzed in the Orbitrap at a resolution of 15,000 (Lumos2) or 30,000 (Lumos1). The dynamic exclusion duration of fragmented precursor ions was set to 20 s (Lumos1) or 30 s (Lumos2). In Eclipse measurements, a cycle time of 2 s was chosen. Peptides were isolated in the quadrupole with an isolation offset of 1.2 (isolation width of 1.2 Th, maximum injection time of 54 ms, AGC target of 200%) and fragmented by […]

[2] = test system: casein kinase 2 (CK2) complex proteins (CSNK2A1/3, CSNK2A2, CSNK2B, EIF3J); assay: Kinobead competition assay; type: binding, human
Excerpt: The binding of KV-24 and KV-30 to the nucleotide-binding pocket raises the question of whether these compounds also target other nucleotide-binding proteins, such as kinases. To evaluate potential off-target effects, we performed Kinobead competition assays. This chemoproteomic approach is conceptually very similar to the one used here in that broad spectrum kinase inhibitors are immobilized on beads. […] PDE1C is a cAMP/cGMP nucleotide-binding protein that features two divalent metal cation cofactors. The hydroxamic acid moiety of KV-24 might chelate these metal cofactors, supporting the hypothesis that KV-24 binds the active site of PDE1C. […]
Given that local GTP production by NME1 and NME2 is essential for fueling dynamin-driven endocytosis, we investigated the effect of KV-50-mediated NME1/2 inhibition on fluorescent transferrin (TF) uptake in cells. HeLa cells were treated with KV-50 or known endocytosis inhibitors (Pitstop-2 and Dynasore), and surface-bound and internalized fluorescent TF were quantified. […]
LC-MS/MS. The different sample types were measured with different LC-MS/MS settings. MBLAC2 2-dose competition assays were measured with the Lumos1 setup, MBLAC2 9-dose competition assays were measured with the Lumos2 setup, and kinobeads assays were measured with the Eclipse setup. […]

recombinant NME1–4 = assay: nucleoside diphosphate kinase activity assay (ATP production from ADP and GTP, Kinase-GLO); type: biochemical; details: in vitro
Protocol: To evaluate whether KV-50 binding affects NME activity, we performed enzyme activity assays using recombinant NME1–4. The assay measured NME-catalyzed production of ATP from ADP (150 μM) and GTP (150 μM).
Nucleotide diphosphate kinase activity assays. The phosphotransfer activity of the NDPKs (NME1-4) was measured in a reaction mixture containing buffer A (20 mM Tris-HCl pH 8.0, 150 mM NaCl, and 1 mM MgCl2). All the samples were pipetted in replicates on a 384 well plate. One volume of the respective NDPK protein solution (NME1-4) was added from stock proteins (diluted in buffer a to a concentration of 300 pM) to the wells in four replicates. To these wells, one volume of the inhibitors (Six dilutions were prepared, starting with a 30 µM stock solution and then performing three-fold serial dilutions) was added and incubated at room temperature for 30 minutes. Then, one volume of the substrate mixture (300 μM GTP and 30 μM ADP) was added to the protein-inhibitor mixture-containing wells and incubated at room temperature for 30 minutes. Finally, three volumes of the Kinase-GLO reagent (Promega V6711) containing an ATP-dependent firefly luciferase were added to all the wells and five minutes later, the luminescence was measured using a plate reader. Eight different concentrations of ATP (0 - 10 μM) were used as standards for a calibration curve to calculate the amount of ATP produced by the different NDPKs.

Toxoplasma gondii = test system: Toxoplasma gondii; set-up: method as in PMID 33360687, PMID 35483428, PMID 38431113, PMID 29414107; details: in human host cells; cited from earlier work

With `O=C(NO)c1ccc(-c2nc3ccccc3n3cccc23)cc1` [KV-24] as the molecule, how does the “targets / off-targets bound” value [1] read?
The value was “bound to HINT1 and NME4”.

And the “casein kinase 2 family members binding” value [2]?
The value was “reduced binding at two-digit μM concentrations”.

What about the “effect on NME enzyme activity” value (recombinant NME1–4) of the same molecule?
The value was “only modestly reduced NME enzyme activity”.

And the “inhibition of proliferation of protozoans” value (Toxoplasma gondii)?
Its value is “potently inhibit the proliferation”.

For `O=C(NO)c1ccc(-c2nc3ccccc3c3ccccc23)cc1` [KV-30], which “targets / off-targets bound” value [1] is on record?
The value was “bound to HINT1 and NME4”.

And the “effect on NME enzyme activity” value (recombinant NME1–4)?
Its value is “only modestly reduced NME enzyme activity”.

And the “inhibition of proliferation of protozoans” value (Toxoplasma gondii)?
The value was “potently inhibit the proliferation”.
